Laboratory results from article PMC10981743, “Network pharmacology, computational biology integrated surface plasmon resonance technology reveals the mechanism of ellagic acid against rotavirus” (Scientific Reports, 2024).
pKd: −log10 of the molar value.

Target: T1, TLR4; Recombinant human TLR4 protein (Active) (Homo sapiens, UniProt O00206)
T1 construct: commercial recombinant protein (Abcam, 'Active'); immobilised on CM5 chip by amine coupling
Test: surface plasmon resonance (Biacore T200, TLR4 immobilised on CM5 chip)
Format: binding
Source text: surface plasmon resonance (Biacore T200, TLR4 immobilised on CM5 chip) on TLR4; Recombinant human TLR4 protein (Active)

T1 sequence (O00206 24-631 limits assumed): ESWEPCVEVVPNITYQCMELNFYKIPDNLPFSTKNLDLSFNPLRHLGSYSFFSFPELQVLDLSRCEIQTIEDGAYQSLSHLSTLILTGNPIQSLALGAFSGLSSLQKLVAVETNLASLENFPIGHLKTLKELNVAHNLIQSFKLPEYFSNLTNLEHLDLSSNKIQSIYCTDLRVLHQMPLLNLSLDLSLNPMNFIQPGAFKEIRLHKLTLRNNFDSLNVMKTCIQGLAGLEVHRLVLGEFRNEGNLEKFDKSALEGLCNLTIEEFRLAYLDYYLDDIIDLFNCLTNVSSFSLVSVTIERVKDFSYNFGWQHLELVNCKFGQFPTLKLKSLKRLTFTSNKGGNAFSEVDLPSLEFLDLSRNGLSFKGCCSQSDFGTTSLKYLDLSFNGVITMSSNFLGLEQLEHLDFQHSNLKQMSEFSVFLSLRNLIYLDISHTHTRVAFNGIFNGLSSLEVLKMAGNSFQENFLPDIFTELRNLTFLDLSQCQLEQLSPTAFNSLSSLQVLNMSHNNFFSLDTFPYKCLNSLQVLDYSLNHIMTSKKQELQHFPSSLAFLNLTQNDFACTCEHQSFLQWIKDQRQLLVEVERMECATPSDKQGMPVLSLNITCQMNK

pKd: 4.72
SMILES: O=c1oc2c(O)c(O)cc3c(=O)oc4c(O)c(O)cc1c4c23 [Ellagic acid]
